Measurements from the CombiSolv-Exp solvation set (Vermeire and Green 2021).

Test: solvent given as SMILES

Clc1cc(Cl)c(-c2c(Cl)c(Cl)cc(Cl)c2Cl)cc1Cl
Details | solvation free energy, 298 K [kcal/mol]
in O | -2.77

COP(=S)(OC)Oc1ccc([N+](=O)[O-])cc1
Details | solvation free energy, 298 K [kcal/mol]
in O | -7.19

O=C(O)c1ccc(O)cc1
Details | solvation free energy, 298 K [kcal/mol]
in C1CCOC1 | -11.4
in C1COCCO1 | -11.2
in CC(=O)N(C)C | -11.8
in CC(C)(C)O | -11.2
in CC(C)=O | -11.5
in CC(C)CO | -11.3
in CC(C)O | -11.5
in CCC(C)O | -11.2
in CCCCCCCCO | -11
in CCCCCCO | -11.2
in CCCCCO | -11.3
in CCCCO | -11.4
in CCCCOC(C)=O | -10.8
in CCCCOCCCC | -10.2
in CCCO | -11.5
in CCO | -11.7
in CCOC(C)=O | -11
in CCOCC | -10.8
in CN(C)C=O | -11.8
in CNC=O | -11.7
in O | -9.25
